Measured values published in patent EP0035728A1, “Cytostatically active amino-polyols, medicaments containing these compounds and their use” (Henkel Kommanditgesellschaft auf Aktien, priority 1980, dated 1981).

How the values were obtained:
[1] = Cytostatic activity (test not described further); settings: result in words, no test conditions given
[2] = test system: Tumorart P 388 (Leukämie); test: P 388 leukemia survival test in mice (NCI protocol 1200), T/C; type: in vivo, Mäusen; settings: nine doses, P 388 set i.p. with 10^6 cells/mouse, survival vs untreated controls
Experimental: Die T/C-Werte dieser Verbindung bei ihrer Austestung am TumorP 388 (Leukämie) unter Standardprüfbedingungen betragen 166 % (100 mg/kg) bzw. 165 % (50 mg/kg).
Die nachfolgenden Versuche wurden durchgeführt nach Testvorschriften des National Cancer Intitute Bethesda; Maryland 200014, veröffentlicht in "Cancer Chemotherapy Reports" Part 3, September 1972, Vol. 3, Nr. 2. Als Wirksubstanz wurde das Di-(2-hydroxy-3-brompropan)-glucamin des Beispiels 1 verwendet. Die Substanz wurde als wäßrige 1-%ige Injektionslösung unmittelbar vor der Applikation frisch hergestellt.
Bei Mäusen wurde gemäß Protokoll 1200 (Seite 91.c.) die Tumorart P 388 (Leukämie) i.p. mit 10^6 Zellen/Maus gesetzt. Die mittlere Überlebensdauer der nicht mit dem erfindungsgemäßen Wirkstoff behandelten Tiere wurde bestimmt.
Einer weiteren Gruppe von Versuchstieren wird der Wirkstoff appliziert. Der Wirkstoff wird dabei in neun Gaben in unterschiedlichen Versuchsreihen einmal zu je 100 mg/kg und in einer weiteren Versuchsreihe zu je 50 mg/kg verabreicht. In allen Fällen wird eine signifikante Verlängerungs der Lebensdauer der behandelten Testtiere gegenüber der Kontrollgruppe der nicht behandelten Tiere erzielt.

CN(CC(O)CBr)C[C@H](O)[C@@H](O)[C@H](O)[C@H](O)CO (some centres unmarked) [N-Methyl-N-(2-hydroxy-3-brom-propyl)-glucamin]
cytostatische Wirksamkeit [1]: unwirksam

CN(CC(O)CCl)C[C@H](O)[C@@H](O)[C@H](O)[C@H](O)CO (some centres unmarked) [entsprechende 3-Chlorverbindung]
cytostatische Wirksamkeit [1]: unwirksam

Di-(2-hydroxy-3-brompropan)-glucamin [Beispiel 1]
Verlängerungsrate T/C ([2]; 50 mg/kg per dose): 165% | Verlängerungsrate T/C ([2]; 100 mg/kg per dose): 166% | cytostatische Wirksamkeit [1]: cytostatisch aktiv
